{
  "source": "paper PMC7206119",
  "about": "“RIP1 inhibition blocks inflammatory diseases but not tumor growth or metastases” (Cell Death and Differentiation, 2019)",
  "experiment_in_all_cases": "biochemical",
  "parameters_in_all_cases": "Thermo Fisher SelectScreen kinase panel: Z'-LYTE and Adapta activity, LanthaScreen binding",
  "key": {"PKG1_alpha": {"target": "T1, PKG1_alpha (Homo sapiens, UniProt Q13976)", "T1 construct": "gene PRKG1; isoform alpha", "outline": "(§1)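 Single-concentration panel: 10 µM GNE684 in KINOMEscan scanMAX binding (468 kinases) and in a 221-kinase panel run as Z'-LYTE/Adapta activity or LanthaScreen binding assays.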"}, "MEK1": {"target": "T2, MEK1 (Homo sapiens, UniProt Q02750)", "T2 construct": "gene MAP2K1", "outline": "as §1"}, "MARK1": {"target": "MARK1 (Homo sapiens, UniProt Q9P0L2)", "outline": "as §1"}, "PRAK": {"target": "T3, PRAK (Homo sapiens, UniProt Q8IW41)", "T3 construct": "gene MAPKAPK5", "outline": "as §1"}, "CDK1/cyclinB": {"target": "CDK1/cyclinB (Homo sapiens, UniProt P06493)", "outline": "as §1"}, "Srm": {"target": "T4, Srm (Homo sapiens, UniProt Q9H3Y6)", "T4 construct": "gene SRMS", "T4 sequence (Q9H3Y6 whole entry)": "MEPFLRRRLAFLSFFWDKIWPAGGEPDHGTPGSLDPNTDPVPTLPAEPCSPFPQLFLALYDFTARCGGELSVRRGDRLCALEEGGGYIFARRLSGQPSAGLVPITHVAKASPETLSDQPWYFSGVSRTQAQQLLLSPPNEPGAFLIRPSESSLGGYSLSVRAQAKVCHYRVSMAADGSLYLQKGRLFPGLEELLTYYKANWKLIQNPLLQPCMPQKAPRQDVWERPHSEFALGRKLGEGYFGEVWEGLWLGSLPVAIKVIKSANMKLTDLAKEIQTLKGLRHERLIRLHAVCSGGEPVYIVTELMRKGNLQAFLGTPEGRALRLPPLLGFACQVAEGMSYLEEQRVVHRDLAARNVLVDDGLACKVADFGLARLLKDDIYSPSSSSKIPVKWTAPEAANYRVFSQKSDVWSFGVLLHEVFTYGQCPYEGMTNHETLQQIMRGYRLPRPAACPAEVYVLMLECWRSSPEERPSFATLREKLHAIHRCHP", "outline": "as §1"}, "RSK3": {"target": "T5, RSK3 (Homo sapiens, UniProt Q15349)", "T5 construct": "gene RPS6KA2", "T5 sequence (Q15349 whole entry)": "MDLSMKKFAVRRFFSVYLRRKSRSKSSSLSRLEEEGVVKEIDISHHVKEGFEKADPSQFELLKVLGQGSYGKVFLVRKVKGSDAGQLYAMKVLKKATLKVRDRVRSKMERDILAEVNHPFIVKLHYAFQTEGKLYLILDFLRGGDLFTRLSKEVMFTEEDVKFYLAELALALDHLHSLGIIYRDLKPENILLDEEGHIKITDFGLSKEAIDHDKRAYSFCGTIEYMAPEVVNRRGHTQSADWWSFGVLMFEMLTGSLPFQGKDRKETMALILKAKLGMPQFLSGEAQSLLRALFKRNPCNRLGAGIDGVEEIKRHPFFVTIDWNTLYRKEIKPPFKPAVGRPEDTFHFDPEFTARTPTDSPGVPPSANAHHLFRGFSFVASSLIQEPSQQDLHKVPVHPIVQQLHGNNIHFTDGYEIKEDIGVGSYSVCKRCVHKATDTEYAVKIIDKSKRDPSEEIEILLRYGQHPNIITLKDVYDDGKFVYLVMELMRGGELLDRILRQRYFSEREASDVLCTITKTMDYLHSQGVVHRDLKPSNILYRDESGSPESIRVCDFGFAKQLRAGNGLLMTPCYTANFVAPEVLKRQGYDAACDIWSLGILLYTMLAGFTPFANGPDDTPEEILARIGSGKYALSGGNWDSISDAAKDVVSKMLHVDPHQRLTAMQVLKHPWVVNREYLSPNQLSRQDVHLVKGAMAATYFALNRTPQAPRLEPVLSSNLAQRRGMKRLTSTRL", "outline": "as §1"}, "SRC": {"target": "SRC (Homo sapiens, UniProt P12931)", "outline": "as §1"}, "TBK1": {"target": "TBK1 (Homo sapiens, UniProt Q9UHD2)", "sequence (Q9UHD2 whole entry)": "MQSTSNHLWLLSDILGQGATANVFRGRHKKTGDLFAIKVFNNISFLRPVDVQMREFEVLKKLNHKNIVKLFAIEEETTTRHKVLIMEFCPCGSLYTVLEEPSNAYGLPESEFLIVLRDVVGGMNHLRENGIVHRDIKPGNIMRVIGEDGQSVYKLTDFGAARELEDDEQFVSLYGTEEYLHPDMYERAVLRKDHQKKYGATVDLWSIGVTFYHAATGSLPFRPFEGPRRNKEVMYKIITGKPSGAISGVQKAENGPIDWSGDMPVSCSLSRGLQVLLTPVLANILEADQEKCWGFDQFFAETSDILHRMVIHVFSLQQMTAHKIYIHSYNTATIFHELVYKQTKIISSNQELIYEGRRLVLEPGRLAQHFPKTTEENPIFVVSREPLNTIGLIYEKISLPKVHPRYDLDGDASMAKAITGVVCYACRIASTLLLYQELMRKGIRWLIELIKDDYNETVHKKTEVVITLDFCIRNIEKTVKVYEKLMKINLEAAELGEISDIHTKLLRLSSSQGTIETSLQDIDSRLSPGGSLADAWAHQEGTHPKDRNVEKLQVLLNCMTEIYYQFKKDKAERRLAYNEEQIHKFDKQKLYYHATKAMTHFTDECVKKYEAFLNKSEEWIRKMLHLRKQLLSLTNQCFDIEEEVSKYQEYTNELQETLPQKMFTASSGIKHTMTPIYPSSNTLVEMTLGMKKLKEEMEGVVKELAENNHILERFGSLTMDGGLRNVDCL", "outline": "as §1"}, "DYRK1A": {"target": "DYRK1A (Homo sapiens, UniProt Q13627)", "outline": "as §1"}, "Hyl": {"target": "T6, Hyl (Homo sapiens, UniProt P42679)", "T6 construct": "gene MATK", "outline": "as §1"}, "PRKAA1": {"target": "PRKAA1 (Homo sapiens, UniProt Q13131)", "outline": "as §1"}, "IKK-beta": {"target": "T7, IKK-beta (Homo sapiens, UniProt O14920)", "T7 construct": "gene IKBKB", "outline": "as §1"}, "PASK": {"target": "PASK (Homo sapiens, UniProt Q96RG2)", "outline": "as §1"}, "CK2_alpha1": {"target": "T8, CK2_alpha1 (Homo sapiens, UniProt P68400)", "T8 construct": "gene CSNK2A1", "outline": "as §1"}, "LCK": {"target": "LCK (Homo sapiens, UniProt P06239)", "outline": "as §1"}, "GRK3": {"target": "GRK3 (Homo sapiens, UniProt P35626)", "sequence (P35626 whole entry)": "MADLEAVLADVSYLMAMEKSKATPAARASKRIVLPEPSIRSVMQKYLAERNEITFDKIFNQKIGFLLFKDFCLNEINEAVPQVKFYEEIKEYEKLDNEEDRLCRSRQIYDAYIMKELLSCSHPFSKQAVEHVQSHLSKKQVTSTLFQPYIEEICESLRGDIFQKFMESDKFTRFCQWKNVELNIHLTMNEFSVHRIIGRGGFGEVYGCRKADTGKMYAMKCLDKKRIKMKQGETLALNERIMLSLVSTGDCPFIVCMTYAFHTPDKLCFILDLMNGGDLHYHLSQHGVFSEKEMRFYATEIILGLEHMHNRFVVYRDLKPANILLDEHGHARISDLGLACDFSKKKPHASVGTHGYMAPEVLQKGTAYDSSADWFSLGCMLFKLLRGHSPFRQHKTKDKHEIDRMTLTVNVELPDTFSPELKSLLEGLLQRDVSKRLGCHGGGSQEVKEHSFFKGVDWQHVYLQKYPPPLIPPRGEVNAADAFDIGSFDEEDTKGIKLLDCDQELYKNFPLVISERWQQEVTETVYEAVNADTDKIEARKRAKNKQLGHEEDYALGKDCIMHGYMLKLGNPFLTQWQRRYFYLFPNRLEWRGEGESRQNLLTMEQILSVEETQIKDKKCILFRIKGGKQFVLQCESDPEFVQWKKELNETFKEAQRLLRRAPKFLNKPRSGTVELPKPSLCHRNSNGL", "outline": "as §1"}, "DCAMKL2": {"target": "T9, DCAMKL2 (Homo sapiens, UniProt Q8N568)", "T9 construct": "gene DCLK2", "T9 sequence (Q8N568 whole entry)": "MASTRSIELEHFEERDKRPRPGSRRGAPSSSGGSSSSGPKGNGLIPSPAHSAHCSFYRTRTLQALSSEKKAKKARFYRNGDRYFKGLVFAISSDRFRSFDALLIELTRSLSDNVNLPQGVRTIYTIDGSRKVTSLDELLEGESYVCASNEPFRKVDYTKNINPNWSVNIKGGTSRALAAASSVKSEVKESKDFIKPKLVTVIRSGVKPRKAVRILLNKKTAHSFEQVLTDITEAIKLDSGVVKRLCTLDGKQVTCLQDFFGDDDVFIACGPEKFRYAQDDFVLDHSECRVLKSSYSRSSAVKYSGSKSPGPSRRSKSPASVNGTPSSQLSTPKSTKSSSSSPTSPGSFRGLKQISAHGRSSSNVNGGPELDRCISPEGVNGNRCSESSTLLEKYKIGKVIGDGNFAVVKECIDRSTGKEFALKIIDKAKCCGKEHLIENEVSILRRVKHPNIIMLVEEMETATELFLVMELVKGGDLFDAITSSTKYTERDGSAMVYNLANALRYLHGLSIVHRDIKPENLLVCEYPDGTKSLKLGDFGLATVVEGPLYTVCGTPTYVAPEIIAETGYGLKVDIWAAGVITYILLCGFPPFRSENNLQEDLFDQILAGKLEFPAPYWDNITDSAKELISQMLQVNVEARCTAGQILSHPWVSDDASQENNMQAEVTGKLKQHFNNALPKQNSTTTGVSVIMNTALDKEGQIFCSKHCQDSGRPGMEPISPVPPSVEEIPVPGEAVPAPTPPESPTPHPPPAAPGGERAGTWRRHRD", "outline": "as §1"}, "CamKIV": {"target": "T10, CamKIV (Homo sapiens, UniProt Q16566)", "T10 construct": "gene CAMK4", "T10 sequence (Q16566 whole entry)": "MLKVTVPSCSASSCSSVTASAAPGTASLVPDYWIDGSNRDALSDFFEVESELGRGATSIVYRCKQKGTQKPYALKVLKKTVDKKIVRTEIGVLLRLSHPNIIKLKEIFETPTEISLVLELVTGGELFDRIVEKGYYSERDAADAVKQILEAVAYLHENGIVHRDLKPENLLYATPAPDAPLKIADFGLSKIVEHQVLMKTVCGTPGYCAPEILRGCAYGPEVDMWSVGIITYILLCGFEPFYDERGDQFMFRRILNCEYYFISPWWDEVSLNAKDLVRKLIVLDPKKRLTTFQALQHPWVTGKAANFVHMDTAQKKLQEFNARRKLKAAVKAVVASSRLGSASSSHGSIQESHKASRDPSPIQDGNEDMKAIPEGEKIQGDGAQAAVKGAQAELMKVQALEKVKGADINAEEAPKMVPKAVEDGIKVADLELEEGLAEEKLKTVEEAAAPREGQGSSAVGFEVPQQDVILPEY", "outline": "as §1"}, "STK33": {"target": "STK33 (Homo sapiens, UniProt Q9BYT3)", "outline": "as §1"}, "INSR": {"target": "INSR (Homo sapiens, UniProt P06213)", "outline": "as §1"}, "AKT2": {"target": "AKT2 (Homo sapiens, UniProt P31751)", "sequence (P31751 whole entry)": "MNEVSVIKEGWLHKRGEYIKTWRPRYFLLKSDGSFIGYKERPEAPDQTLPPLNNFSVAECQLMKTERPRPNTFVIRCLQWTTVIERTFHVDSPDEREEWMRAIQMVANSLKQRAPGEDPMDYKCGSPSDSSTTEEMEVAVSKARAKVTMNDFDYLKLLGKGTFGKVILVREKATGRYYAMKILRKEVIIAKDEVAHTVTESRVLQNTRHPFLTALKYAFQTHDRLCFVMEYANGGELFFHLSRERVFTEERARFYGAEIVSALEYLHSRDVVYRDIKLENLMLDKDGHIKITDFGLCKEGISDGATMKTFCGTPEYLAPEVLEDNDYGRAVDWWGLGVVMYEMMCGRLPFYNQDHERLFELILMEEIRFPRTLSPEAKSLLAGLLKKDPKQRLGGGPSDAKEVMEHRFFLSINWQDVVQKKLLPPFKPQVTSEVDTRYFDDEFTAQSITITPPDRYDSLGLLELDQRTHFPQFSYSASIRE", "outline": "as §1"}, "GSK3_beta": {"target": "T11, GSK3_beta (Homo sapiens, UniProt P49841)", "T11 construct": "gene GSK3B", "T11 sequence (P49841 whole entry)": "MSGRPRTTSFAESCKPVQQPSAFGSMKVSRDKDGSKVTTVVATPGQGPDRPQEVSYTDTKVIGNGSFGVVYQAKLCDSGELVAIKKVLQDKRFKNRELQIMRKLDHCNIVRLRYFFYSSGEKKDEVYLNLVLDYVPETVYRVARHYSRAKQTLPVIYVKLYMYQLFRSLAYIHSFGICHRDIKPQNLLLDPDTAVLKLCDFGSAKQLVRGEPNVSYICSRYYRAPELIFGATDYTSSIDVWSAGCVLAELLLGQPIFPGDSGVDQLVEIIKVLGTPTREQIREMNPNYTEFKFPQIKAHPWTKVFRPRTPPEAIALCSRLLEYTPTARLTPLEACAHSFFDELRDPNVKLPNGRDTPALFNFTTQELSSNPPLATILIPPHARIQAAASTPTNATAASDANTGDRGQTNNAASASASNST", "outline": "as §1"}},
  "data": [
    {"smiles": "COc1cc2c(cn1)N(C)C(=O)[C@@H](NC(=O)c1nc3n(n1)[C@H](c1ccccc1)CC3)CC2", "note": "[GNE684, (S)-N-((S)-7-methoxy-1-methyl-2-oxo-2,3,4,5-tetrahydro-1H-pyrido[3,4-b]azepin-3-yl)-5-phenyl-6,7-dihydro-5H-pyrrolo[1,2-b][1,2,4]triazole-2-carboxamide]", "values": [
      {"measurement": "inhibition at 10 µM", "setting": "PKG1_alpha", "result": 7, "unit": "%"},
      {"measurement": "inhibition at 10 µM", "setting": "MEK1", "result": -7.5, "unit": "%"},
      {"measurement": "inhibition at 10 µM", "setting": "MARK1", "result": 6.5, "unit": "%"},
      {"measurement": "inhibition at 10 µM", "setting": "PRAK", "result": 2.5, "unit": "%"},
      {"measurement": "inhibition at 10 µM", "setting": "CDK1/cyclinB", "result": -0.5, "unit": "%"},
      {"measurement": "inhibition at 10 µM", "setting": "Srm", "result": 9, "unit": "%"},
      {"measurement": "inhibition at 10 µM", "setting": "RSK3", "result": 6, "unit": "%"},
      {"measurement": "inhibition at 10 µM", "setting": "SRC", "result": -1, "unit": "%"},
      {"measurement": "inhibition at 10 µM", "setting": "TBK1", "result": 1, "unit": "%"},
      {"measurement": "inhibition at 10 µM", "setting": "DYRK1A", "result": 2, "unit": "%"},
      {"measurement": "inhibition at 10 µM", "setting": "Hyl", "result": 1, "unit": "%"},
      {"measurement": "inhibition at 10 µM", "setting": "PRKAA1", "result": -3, "unit": "%"},
      {"measurement": "inhibition at 10 µM", "setting": "IKK-beta", "result": 8.5, "unit": "%"},
      {"measurement": "inhibition at 10 µM", "setting": "PASK", "result": 4.5, "unit": "%"},
      {"measurement": "inhibition at 10 µM", "setting": "CK2_alpha1", "result": 3.5, "unit": "%"},
      {"measurement": "inhibition at 10 µM", "setting": "LCK", "result": 5, "unit": "%"},
      {"measurement": "inhibition at 10 µM", "setting": "GRK3", "result": 2.5, "unit": "%"},
      {"measurement": "inhibition at 10 µM", "setting": "DCAMKL2", "result": 2, "unit": "%"},
      {"measurement": "inhibition at 10 µM", "setting": "CamKIV", "result": -1, "unit": "%"},
      {"measurement": "inhibition at 10 µM", "setting": "STK33", "result": 0, "unit": "%"},
      {"measurement": "inhibition at 10 µM", "setting": "INSR", "result": 3.5, "unit": "%"},
      {"measurement": "inhibition at 10 µM", "setting": "AKT2", "result": 4.5, "unit": "%"},
      {"measurement": "inhibition at 10 µM", "setting": "GSK3_beta", "result": 5, "unit": "%"}
    ]}
  ]
}
